From patent EP4729061A1, “USE OF AKT INHIBITOR IN PREPARATION OF DRUG FOR PREVENTING OR TREATING BREAST CANCER” (Nanjing Chia Tai Tianqing Pharmaceutical Co., Ltd., priority 2023, dated 2024)

Legend:
[1] = test system: MCF-7 human breast cancer subcutaneous xenograft model; assay: Tumor inhibition in subcutaneous xenograft model; format: in vivo, female BALB/c nude mice; conditions: the compound of Formula (A) 25 mg/kg p.o. QD, Fulvestrant 5 mg/mouse s.c. QW; for Body weight Post 28 Days of Treatment: mean ± standard error; for Body weight Post 28 Days of Treatment / Tumor Volume 28 Days After Administration: n=12, x 4 weeks; for Tumor Volume 28 Days After Administration: tumor volume at grouping 204 ± 6, P <0.001 vs control; for T/C: relative tumor volume increase ratio; for T/C / TGI: day 28; for TGI: tumor growth inhibition rate
Source text: The purpose of this study is to evaluate the therapeutic efficacy of the compound of Formula (A) in combination with fulvestrant in the MCF-7 human breast cancer subcutaneous xenograft model in female BALB/c nude mice.
BALB/c nude mice, 6-8 weeks old, female, weighing 18-20 g, were purchased from Beijing Anikeeper Biotech Co., Ltd.. The feeding environment was SPF-grade, the temperature is (23±3)°C and the humidity is 40-70%.
Solvent for the compound of Formula (A): 1,2-Propanediol (PG) : 50% Solutol HS-15 : 0.5% Hydroxypropyl Methylcellulose (HPMC) = 2 : 1 : 7.
Compound preparation methods
MCF-7 tumor cells were cultured in DMEM medium containing inactivated 15% fetal bovine serum, 100 U/mL penicillin, and 100 µg/mL streptomycin in an incubator at 37°C with 5% CO2. Tumor cells in the logarithmic growth phase were used for in vivo tumor inoculation.
One day before the inoculation of MCF-7 tumor cells, the mice were subcutaneously implanted with an estrogen tablet (0.5 mg, 90-day release period) on the left side. MCF-7 tumor cells resuspended in serum-free DMEM medium were inoculated subcutaneously into the right costal region of the experimental animals at a density of 1.5 × 10^7 cells (0.2 mL + Matrigel), with a total of 72 animals inoculated. When the tumors grew to approximately 204 mm^3, 48 animals with relatively uniform tumor volumes were selected for grouping and administration, divided into 4 groups, and administered according to the dosing schedule. Table 8. Compounds administration schedule
Tumor volume was measured twice a week using a vernier caliper. The long diameter and short diameter of the tumor were measured, and the volume was calculated using the formula: Volume = 0.5×long diameter×short diameter^2.
While measuring the tumor volume, the body weight of the mice was weighed. The relationship between the changes in the mice's body weight and the administration time was recorded. Meanwhile, the survival status and health conditions of the mice were observed, such as their general states including activity and food intake during the administration period.
Tumor Growth Inhibition Rate(TGI,%) = (1−T/C) × 100 [formula]
Statistical analysis of tumor volume between groups was performed using the statistical software SPSS 16.0 and One-Way ANOVA test. A p-value < 0.05 was considered statistically significant.

T47D Cells = assay: Cell proliferation inhibition, CTG (CelltiterGlo) method, alone or combined with fulvestrant; format: cell-based; conditions: compound alone; for IC50: Homo sapiens, T47D, 168 h, 7 days; for Maximum Inhibition Rate on T47D Cells: maximum value fitted by GraphPad Prism 8
Method: a). BT-474 cells were cultured in Hybri-Care medium supplemented with 1% antibiotics and 10% FBS, and incubated in the condition of 37°C with 5% CO2; b). MCF-7 cells were cultured in EMEM medium supplemented with 1% antibiotics, 0.01 mg/mL insulin, and 10% FBS, and incubated in the condition of 37°C with 5% CO2; c). ZR-75-1 cells were cultured in RPMI-1640 medium supplemented with 1% antibiotics and 10% FBS, and incubated in the condition of 37°C with 5% CO2; d). T47D cells were cultured in RPMI-1640 medium supplemented with 1% antibiotics, 0.2 U/mL insulin, and 10% FBS, and incubated in the condition of 37°C with 5% CO2; e) CAMA-1 cells were cultured in EMEM medium supplemented with 1% antibiotics and 10% FBS, and incubated in the condition of 37°C with 5% CO2.
a). Cells were routinely cultured until reaching 80%-90% confluence and when the required cell number was reached, they were harvested; b). Resuspended in the corresponding medium, counted, and prepared into a cell suspension with appropriate density; c). The cell suspension was added to a 384-well plate at 40 µL per well. Table 1. Plating densities of different cell lines
d). The cells were cultured overnight in an incubator at 37°C with 5% CO2 .
a). The compound of Formula (A) was serially diluted 3-fold for 10 concentrations starting from a stock solution of 60 mM (using the monofumarate dihydrate of the compound of Formula (A), with the concentration calculated based on the free base of the compound of Formula (A); the compound of Formula (A) or salt thereof was prepared with reference to the preparation method disclosed in WO2022017448A1); b). Fulvestrant was diluted from 10 mM to 2 mM with DMSO, then serially diluted 3-fold for 10 concentrations; c). Fulvestrant was diluted from 2 mM to 0.2 mM with DMSO, then serially diluted 3-fold for 10 concentrations; d). Fulvestrant was diluted from 0.2 mM to 2 µM with DMSO; e). Fulvestrant was diluted from 2 µM to 0.8 µM with DMSO; f). Fulvestrant was diluted from 2 µM to 0.3 µM with DMSO; g) Fulvestrant was diluted from 0.8 µM to 0.08 µM with DMSO; h). The final concentration of DMSO was 0.1%; i). Cells supplemented with DMSO served as control wells for high reading values; j). Cell-free medium served as control wells for low reading values.
24 Hours after MCF-7, T47D, and CAMA-1 cells were plated, the compound was administered alone. For the compound of Formula (A): 20 nL of the compound prepared in step 2.3 a) + 20 nL of DMSO were added. For compound fulvestrant: 20 nL of the compound prepared in step 2.3 c) + 20 nL of DMSO were added.
24 Hours after T47D cells were plated, the compound of Formula (A) was administered in combination with fulvestrant: 20 nL of the compound prepared in step 2.3 a) + 20 nL of the compounds prepared in step 2.3 c), e), and g). […]

Question: What does the source list for C[C@]12CC[C@@H]3c4ccc(O)cc4C[C@@H](CCCCCCCCC[S+]([O-])CCCC(F)(F)C(F)(F)F)[C@H]3[C@@H]1CC[C@@H]2O (stereo partly drawn) [Fulvestrant, reference compound]?
Answer: Body weight Post 28 Days of Treatment [1]: 25.9 ± 0.3 g; Tumor Volume 28 Days After Administration [1]: 546 ± 54 mm^3; T/C [1]: 46.9%; TGI [1]: 53.1%; IC50 (T47D Cells): 0.09 nM; Maximum Inhibition Rate on T47D Cells (T47D Cells): 62.71%

Question: How did the “Body weight Post 28 Days of Treatment” value [1] turn out when CC(C)NC[C@@H](C(=O)N1CCN(c2ncnc3c2[C@H](C)CC(=O)N3)[C@H]2C[C@H]21)c1ccc(Cl)cc1 [The compound of Formula (A), (R)-4-((1S,6R)-5-((S)-2-(4-chlorophenyl)-3-(isopropylamino)propanoyl)-2,5-diazabicyclo[4.1.0]heptan-2-yl)-5-methyl-5,8-dihydropyrido[2,3-d]pyrimidin-7(6H)-one] was run?
Answer: 23.8 ± 0.5 g

Question: And the “Tumor Volume 28 Days After Administration” value [1]?
Answer: 684 ± 65 mm^3

Question: And the T/C [1]?
Answer: 58.4%

Question: What about the TGI [1] of the same molecule?
Answer: 41.6%

Question: And the IC50 (T47D Cells)?
Answer: 358 nM

Question: And the “Maximum Inhibition Rate on T47D Cells” value (T47D Cells)?
Answer: 91.47%
